This is an account of results in patent US12428396B2, “Fused pyridine ring derivative, preparation method therefor, and pharmaceutical use thereof” (priority 2019, dated 2025).

The term half-life denotes the time in which the quantity being followed falls by half.

Data set [1] is described as follows: Thermodynamic stability test of atropisomerism (LC-MS). It counts as physicochemical. As for the experimental part: Agilent 1200 DAD model LC-MS; column: waters sunfire C18, 4.6×75 mm, 3.5 μm; mobile phase: water (0.1% trifluoroacetic acid):acetonitrile (0.1% trifluoroacetic acid).
The compounds of Examples 1-1a, 1-1b were atropisomers of each other and had different retention times in the LC-MS spectra, and the tautomerism of the atropisomers could be detected by LC-MS.
Compound 1-1a (1.5 mg) was dissolved in acetonitrile (1.0 mL), and the reaction solution was heated at 40° C. for 1.0 h, and the change in purity of compound 1-1a was detected by LC-MS. Compound 1-1a (1.5 mg) was dissolved in dimethyl sulfoxide (1.0 mL), and the reaction solution was heated at 120° C. for 3.0 h, and the change in purity of compound 1-1a was detected by LC-MS.
The same procedure was used to test the change in purity of compound 1-1b at 40° C. and 120° C.
The compounds of Examples 5-1, 5-2 were atropisomers of each other and had different retention times in the LC-MS spectra, and the tautomerism of the atropisomers could be detected by LC-MS.
Compound 5-1 (1.0 mg) was dissolved in DMSO (1.0 mL), and the reaction solution was heated at 37° C. and 120° C. for 3.0 h, respectively, and the change in purity of compound 5-1 was detected by LC-MS.

Data set [2] is described as follows: Beagle pharmacokinetic study (ig/sc/iv, plasma LC/MS/MS). The data set is classed as in vivo, beagles. Particulars: for AUC(0-t) / half-life / Cmax: dog, plasma; for AUC(0-t): read-out: Area under curve AUC0-72; for half-life: read-out: Half life T½ (converted); for Cmax: read-out: Plasma concentration Cmax. On the procedure: Taking beagles as test animals, and the drug concentrations in dog plasma at various times after intragastric administration (ig)/subcutaneous injection (sc)/intravenous injection (iv) administration of the compound of Example 1-1 and Positive Control Example 1 were measured by using LC/MS/MS method. The pharmacokinetic performance in beagles of the compounds of the present disclosure was studied and the pharmacokinetic profile thereof was evaluated.
18 non-naïve beagles (999M-004, medicilon) with 7-12 kg, every 3 of which were in one group.
The intragastric administration group: a certain amount of the compounds was weighed, ethanol with a volume of 5% of the final volume, 20% PG, 45% PEG300 and 30% deionized water were added (the pH was adjusted to be about 2 with 0.01 N HCl), and the reaction mixture was subjected to ultrasonic stirring for uniform mixing to give an administration solution at a concentration of 0.8 mg/mL.
The subcutaneous injection administration group: a certain amount of the compounds was weighed, 2% aqueous poloxamer 188 solution with a proper volume was added, and the reaction mixture was subjected to ultrasonic stirring for uniform mixing to give a suspension administration solution at a concentration of 200 mg/mL.
The intravenous administration group: a certain amount of the compounds was weighed, 5% volume of DMSO, 30% PG, 30% PEG400 and 35% volume of normal saline were added, and the reaction mixture was subjected to vortex ultrasonic stirring for uniform mixing to give an administration solution at a concentration of 0.5 mg/mL.
Beagles were intragastrically administered with the compounds after fasting overnight, at a dose of 4.0 mg/kg and a volume of 5.0 mL/kg.
Beagles were subcutaneously injected with the compounds after fasting overnight, at a dose of 6.0 mg/kg and a volume of 0.03 mL/kg.
Beagles were intravenously injected with the compounds after fasting overnight, at a dose of 1.0 mg/kg and a volume of 2 mL/kg.
Beagles were intragastrically administered with the compound of Example 1-1/Positive Control Example 1, and 1 mL of blood was collected from the orbit before administration and at 0.25 h, 0.5 h, 1.0 h, 2.0 h, 4.0 h, 6.0 h, 8.0 h, 12.0 h, 24 h, 32 h, 48 h, 56 h and 72 h after administration, respectively, and placed in EDTA-K2 anticoagulant blood collection tubes, plasma was centrifuged (centrifugal force: 2200 g, centrifugation time: 10 min, 2-8° C.), and stored at −80° C., and food intake was resumed 3 h after administration.
The compound of Example 1-1/Positive Control Example 1 was subcutaneously injected to beagles, and 1 mL of blood was collected before administration and at 1.0 h, 3.0 h, 8.0 h, 24 h, 48 h, 72 h, 96 h, 168 h, 336 h, 432 h and 504 h after administration, respectively, and placed in EDTA-K2 anticoagulant blood collection tubes, plasma was centrifuged (centrifugal force: 2200 g, centrifugation time: 10 min, 2-8° C.), and stored at −80° C., and food intake was resumed 3 h after administration.
The content of the compound to be tested in the plasma of beagles was determined after the intragastric administration of the compounds at different concentrations: 20 μL of the plasma in beagles at each time after administration was taken, 200 μL of methanol containing internal standard (100 ng/mL) was added, the reaction mixture was subjected to vortex mixing for 1 min, and centrifuged for 7 min (centrifugal force: 18000 g), and 1 μL of the supernatant was taken from the plasma sample for LC/MS/MS analysis. […]

The nature of data set [3]: Monkey pharmacokinetic study (iv, plasma LC/MS/MS). It counts as in vivo, cynomolgus monkeys. Particulars: cynomolgus monkey, intravenous injection, 1 mg/kg. On the procedure:
Taking cynomolgus monkeys as test animals and the drug concentrations in monkey plasma at various times after intravenous injection (iv) of the compounds of Example 1-1 and Positive Control Example 1 were measured by using LC/MS/MS method. The pharmacokinetic performance in cynomolgus monkeys of the compounds of the present disclosure was studied and the pharmacokinetic profile thereof was evaluated.
6 non-naïve cynomolgus monkeys (999M-004, medicilon) with 2-5 kg, every 3 of which were in one group.
A certain amount of the compounds was weighed, 5% volume of DMSO, 30% PG, 30% PEG400 and 35% volume of normal saline were added, and the reaction mixture was subjected to vortex ultrasonic stirring for uniform mixing to give a clean administration solution at a concentration of 0.5 mg/mL.
Monkeys were intravenously injected with the compounds after fasting overnight, at a dose of 1.0 mg/kg and a volume of 2 mL/kg.
The compound of Example 1-1/Positive Control Example 1 was intravenously injected to monkeys, and 1 mL of blood was collected through femoral vein before administration and at 5 min, 0.25 h, 0.5 h, 1.0 h, 2.0 h, 4.0 h, 8.0 h, 12.0 h, 24 h, 32 h, 48 h, 56 h and 72 h after administration, respectively, and placed in EDTA-K2 anticoagulant blood collection tubes, plasma was centrifuged (centrifugal force: 2200 g, centrifugal time: 10 min, 2-8° C.), and stored at −80° C., and food intake was resumed 3 h after administration.

Setting [4] is: po, intragastric administration, 4 mg/kg.
The mark [5] stands for this setting: sc, subcutaneous injection, 6 mg/kg.

Molecules are shown by their SMILES. Like-named read-outs stand apart in the source and are kept apart here.

For `CC(C)(C#Cc1nc([C@H](Cc2cc(F)cc(F)c2)NC(=O)Cn2nc(C(F)(F)F)c3c2C(F)(F)[C@@H]2C[C@H]32)c(-c2ccc(Cl)c3c(NS(C)(=O)=O)nn(CC(F)(F)F)c23)c2c1CCC2)S(C)(=O)=O` (atropisomer, axis not shown; (aR)) [Example 1-1, N—((S)-1-((R)-4-(4-chloro-3-(methanesulfonamide)-1-(2,2,2-trifluoroethyl)-1H-indazol-7-yl)-1-(3-methyl-3-(methylsulfonyl)but-1-yn-1-yl)-6,7-dihydro-5H-cyclopenta[c]pyridin-3-yl)-2-(3,5-difluorophenyl)ethyl)-2-((3bS,4aR)-5,5-difluoro-3-(trifluoromethyl)-3b,4,4a,5-tetrahydro-1H-cyclopropa[3,4]cyclopenta[1,2-c]pyrazol-1-yl)acetamide], the “atropisomer stability (change in purity by LC-MS)” value in data set [1] (heated at 40° C. for 1.0 h in acetonitrile) and in data set [1] (heated at 120° C. for 3.0 h in dimethyl sulfoxide) was “stable single-configuration compounds” throughout. The AUC(0-t) in data set [2] (intravenous injection, 1 mg/kg) came out at 16500 ng·h/mL; in data set [2] (setting [4]) it was 8230 ng·h/mL; in data set [2] (setting [5]), 34800 ng·h/mL; in data set [3] (plasma, read-out: Area under curve AUC0-72), 8520 ng·h/mL. In addition, the half-life in data set [2] (intravenous injection, 1 mg/kg) was 41.8 h; in data set [2] (setting [4]) it was 44.3 h. Also, the Cmax in data set [2] (intravenous injection, 1 mg/kg) is 1320 ng/mL; in data set [2] (setting [4]), 251 ng/mL; in data set [2] (setting [5]), 122 ng/mL. In addition, the “Clearance CLz/F” value was determined as 0.7 mL/min/kg in data set [2] (intravenous injection, 1 mg/kg) and 2.0 mL/min/kg in data set [3].
